Results on one compound are retold here after article PMC11118514, “Eminent Antimicrobial Peptide Resistance in Zymomonas mobilis: A Novel Advantage of Intrinsically Uncoupled Energetics” (Antibiotics, 2024).

The subject of test [1] is Z. mobilis cell suspension (proton-dependent ATP synthase of the cytoplasmic membrane). The experiment in a line: ATP synthesis induced by artificial transmembrane pH gradient. The test is classed as cell-based, Zymomonas mobilis. As to conditions: Z. mobilis starved cells; 10 μM, added 5 min before pH shift of 3.5–4.0 units; luciferin–luciferase. How it is done:
(§1) Here, we assumed that any effect the AMPs exerted on the pH-induced ATP synthesis indicated a direct interaction between the peptide and the cytoplasmic membrane. After the induction of a pH gradient of 3.5–4.0 units in cell suspensions of both Z. mobilis and E. coli, we observed an abrupt increase in the intracellular ATP concentration, reaching its maximum value within a time span between 30 sec and 1 min. The magnitude of the observed ATP concentration rise approximately corresponded to previously published values. […] When added in amounts below the threshold value (Figure 4a,b), peptides had no inhibitory effect on the ATP response. […] Yet, such an effect elicits a much stronger physiological response in E. coli than in Z. mobilis.
(§2) ATP synthase activity induced by an artificial pH gradient was measured in non-growing starved cell suspensions. For the preparation of non-growing cell suspension, cells were harvested in the late exponential phase, sedimented, washed, and resuspended in 100 mM potassium phosphate buffer (pH 7.0), to a biomass concentration of 1.5–2.0 mg dry wt /mL. […] For ATP determination, 20 μL samples were quenched in ice-cold 10% TCA and assayed by the standard luciferin–luciferase method using a TECAN Infinite 200Pro microplate reader (Tecan, Männedorf, Switzerland). […]

The subject of test [2] is E. coli cell suspension (proton-dependent ATP synthase of the cytoplasmic membrane). The test is described as above. It is filed as cell-based, Escherichia coli. Particulars: E. coli starved cells; 10 μM, added 5 min before pH shift of 3.5–4.0 units; luciferin–luciferase. As to the method:
as §1, §2

As for `N#CC(C#N)=NNc1cccc(Cl)c1` [ClCCP], the “effect on pH gradient-induced ATP synthesis” value is “almost complete de-energization and a dramatic drop of the ATP yield” in test [1]; “almost complete de-energization and a dramatic drop of the ATP yield” in test [2].
